Entries after “also recorded” stand apart in the source; their conditions may differ.
How the values were obtained:
corneal wound models = test: Corneal wound healing effect test (corneal epithelium removal model); type: in vivo, New Zealand white rabbits
Protocol: It was examined whether the compounds of formula (1) show clinically stable corneal wound healing effects in ophthalmologic surgery such as LRP (laser reversal of presbyopia), LASIK (laser assisted in-situ keratomileusis) and LASEK (laser assisted sub-epithelial keratomileusis). For this, 16 New Zealand white rabbits of 2.0˜2.5 kg were prepared as test animals, anesthetized via intramuscular injection with 15 mg/kg of Zoletil and 5 mg/kg of Xylazine, and then their corneal epitheliums with diameters of 10-12 mm or so were removed using a surgery blade (No. 15) and a rotary epithelial scrubber to produce corneal wound models. At 30 min. after the above-mentioned surgery, two drops of compound 1, that is, (tetrahydropyran-4-ylmethyl)-[2-phenyl-5-(1,1-dioxo-thiomorpholine-4-yl)methyl-1H-indole-7-yl]amine) (KDR Biotech. Co., Ltd., Seoul, Korea) of 50 μM were applied to the experimental group and two drops of a physiological saline were applied to the control group and then, they wore contact lenses, and one drop of the same medicines was applied at 12-hour intervals. To measure a wound area in the experimental group and the control group, their corneal surfaces were stained with Fluorescin using Fluorescin (Haag-Streit International, Switzerland) strips and their diameters were measured using a microcaliper at 24-hour intervals. In the meantime, for the histological evaluation of the experimental group and the control group, they were anesthetized with 25% urethane on the first, second and third day to extract their eyeballs and then, their anterior eye parts including cornea were embedded in wax (Polyscience, USA) to produce 5-μm fragments, which were then stained with Hematoxylin & Eosin and observed using a microscope.

[1] = test system: MNU (N-methyl-N-nitrosourea)-induced retinal degeneration models; test: Efficiency test in MNU-induced retinal degeneration animal model; type: in vivo, Sprague-Dawley rats
Protocol: The compounds of formula (1) were applied to retinal degeneration which is hard to cure or incurable to evaluate their effects. For this, 3 250-g Sprague-Dawley rats were prepared as a test animal, and injected with 75 mg/kg of N-methyl-N-nitrosourea (MNU) via an intraperitoneal route to induce retinal degeneration, thereby to produce retinal degeneration models. At 30 min. after the retinal degeneration induction, 10 μl of compound 1, that is, (tetrahydropyran-4-ylmethyl)-[2-phenyl-5-(1,1-dioxo-thiomorpholine-4-yl)methyl-1H-indole-7-yl]amine) (KDR Biotech. Co., Ltd., Seoul, Korea) of 50 μM and a physiological saline was injected into the vitreous body of the experimental group and the control group, respectively and then, the same medicines were injected via the same methods after 72 hours of the retinal degeneration induction. To evaluate the healing effects of retinal degeneration in the experimental group and the control group, on the 5th day of the retinal degeneration induction, the animals were anesthetized using 8% chloral hydrate (0.5 mg/kg) and subjected to electroretinogram (ERG) test (UTAS-2000; LKC Technologies, USA), in which scotopic response was recorded as a single flash response having a strength of 0.9 log (cd s) m^−2 or higher. In the meantime, for the histological evaluation of the experimental group and the control group, their eyeballs were extracted from the animals which completed the electroretinogram test on the 5th day of the retinal degeneration induction to produce eyecups, and then they were embedded in wax to produce 5-μm fragments, which were then stained with Hematoxylin & Eosin and observed using a microscope.

[2] = test system: human retinal pigment epithelial cell line ARPE-19; test: Protection efficiency test of retinal pigment epithelial cell (NaIO3-induced apoptosis, MTT assay); type: cell-based; conditions: 10 mM NaIO3 then 1 μM compound
Protocol: A human retinal pigment epithelial cell line ARPE-19 was treated with 10 mM of NaIO3, which is a retinal pigment epithelial cell apoptosis inducing agent, to induce apoptosis and then, it was treated with compound 2 of the invention, that is, (5-(1,1-dioxo-thiomorpholine-4-yl)methyl-2-phenyl-1H-indole-7-yl)-(1-methanesulfonyl-piperidine-4-yl)-amine (Enzo Life Sciences, Inc.) of 1 μM, and the compound treatment group and the non-treatment group were analyzed about their apoptosis degree using an MTT assay and survived cells were comparatively analyzed.

white rat retina explant = test: Retinal nerve cell protection efficiency test on low oxygen stimulation (retinal explant culture); type: cell-based; conditions: hypoxic chamber 30 min, 1 μM compound, cultivated 3 days
Protocol: A white rat retina was cultivated overnight under explant culture conditions and then, damaged with low oxygen in a hypoxic chamber for 30 min., and cultivated for 3 days with or without being treated with compound 2 of 1 μM, and after the cultivation, the obtained retinal explants were stained and observed using a microscope.

[3] = 10 μl of 50 μM intravitreal at 30 min and 72 hours, ERG on 5th day

Structure (SMILES)	time until corneal wound healed (Fluorescin stain) (corneal wound models; 50 μM eye drops at 12-hour intervals, saline control healed on the 4th to 5th day) [days]	healing effect on damaged corneal area (fluorescin staining) in comparison with control group (corneal wound models; 50 μM eye drops, damaged areas right after wound induction and on the third day)	corneal epithelium in Hematoxylin & Eosin stained corneal tissue fragments (corneal wound models; 50 μM eye drops, third day of drug treatment, control epithelium remained damaged)	ERG response higher than the control group [1, 3] [%]	electroretinogram a- and b-wave response compared to control group [1, 3]	retinal tissue fragments stained with Hematoxylin & Eosin (histology) ([1]; 10 μl of 50 μM intravitreal, 5th day, control showed severe retinal degeneration)	survived cells (MTT assay) in comparison with control group [2]	outer nuclear layer (ONL) and inner nuclear layer (INL) of retinal explant after low oxygen damage (white rat retina explant)
O=S1(=O)CCN(Cc2cc(NCC3CCOCC3)c3[nH]c(-c4ccccc4)cc3c2)CC1 [compound 1, (tetrahydropyran-4-ylmethyl)-[2-phenyl-5-(1,1-dioxo-thiomorpholine-4-yl)methyl-1H-indole-7-yl]amine]	≤ 3	statistically significant (*** P<0.001) healing effect	completely restored	200	increased response in both a- and b-waves	close to a normal tissue; also recorded: well-aligned retinal structure	–	–
CS(=O)(=O)N1CCC(Nc2cc(CN3CCS(=O)(=O)CC3)cc3cc(-c4ccccc4)[nH]c23)CC1 [compound 2, (5-(1,1-dioxo-thiomorpholine-4-yl)methyl-2-phenyl-1H-indole-7-yl)-(1-methanesulfonyl-piperidine-4-yl)-amine]	–	–	–	–	–	–	statistically significant (* P<0.05; Student's t-test) survival results	well preserved

From US20150038500A1, “PHARMACEUTICAL COMPOSITION FOR PREVENTING AND TREATING OPHTHALMIC DISORDERS” (CATHOLIC UNIVERSITY INDUSTRY-ACADEMIC COOPERATION FOUNDATION, priority 2011, published 2015)
